The nature of test [1]: Cytotoxicity against human MIAPaCa2 cells at 10 uM after 48 hrs by SRB assay. The format is functional. The conditions noted are these: MIA PaCa-2, 48 h.
Test [2] is described as follows: Cytotoxicity against human PLC/PRF/5 cells at 10 uM after 48 hrs by SRB assay. It is filed as functional. The note with it: PLC-PRF-5, 48 h.
For test [3], the system named is SK-OV-3. The experiment in a line: Cytotoxicity against human SKOV3 cells at 10 uM after 48 hrs by SRB assay. The conditions noted are these: SK-OV-3, 48 h. It is filed as functional.
Test [4] deals with DU-145. Description: Cytotoxicity against human DU145 cells at 10 uM after 48 hrs by SRB assay. The format is functional. The conditions noted are these: DU-145, 48 h.
Test [5] is described as follows: Cytotoxicity against human A172 cells at 10 uM after 48 hrs by SRB assay. The note with it: A 172, 48 h. The format is functional.
The test system of test [6] is A549. Description: Cytotoxicity against human A549 cells at 10 uM after 48 hrs by SRB assay. It is filed as functional. The conditions noted are these: A549, 48 h.
In test [7] the test system is MCF7. Description: Cytotoxicity against human MCF7 cells at 10 uM after 48 hrs by SRB assay. The conditions noted are these: MCF7, 48 h. The format is functional.
Test [8] in a line: Cytotoxicity against human DLD1 cells at 10 uM after 48 hrs by SRB assay. The conditions noted are these: DLD-1, 48 h. It is filed as functional.
Test [9] in a line: Cytotoxicity against human A172 cells after 48 hrs by SRB assay. It is filed as functional, cell-based. The conditions noted are these: A 172, 48 h.
The subject of test [10] is MCF7. The experiment in a line: Cytotoxicity against human MCF7 cells after 48 hrs by SRB assay. It is filed as functional, cell-based.
The subject of test [11] is A549. The experiment in a line: Cytotoxicity against human A549 cells after 48 hrs by SRB assay. The format is functional, cell-based. The conditions noted are these: A549, 48 h.
Test [12] deals with PC-3. Description: Cytotoxicity against human PC3 cells after 48 hrs by SRB assay. The format is functional, cell-based. The note with it: PC-3, 48 h.
Test [13] deals with SK-OV-3. Description: Cytotoxicity against human SKOV3 cells after 48 hrs by SRB assay. The format is functional, cell-based. The note with it: SK-OV-3, 48 h.
Test [14] concerns Vero. The experiment in a line: Cytotoxicity against African green monkey Vero cells after 48 hrs by SRB assay. It is filed as cell-based. The note with it: Chlorocebus sabaeus.
Test [15] relates to 4T1. Description: Cytotoxicity against mouse 4T1 cells after 48 hrs by SRB assay. The format is functional, cell-based.
Test [16] deals with MDA-MB-231. Description: Cytotoxicity against human MDA-MB-231 cells after 48 hrs by SRB assay. The format is functional, cell-based.

Each structure is given as a SMILES string.

In the case of `O=C(/C=C/c1nccc2c1[nH]c1ccccc12)c1ccccc1`, the inhibition at 10 µM amounted to 21.7% in test [1]; 76.7% in test [2]; 0.91% in test [3]; 20.1% in test [4]; 78.4% in test [5]; 11.7% in [6]. The inhibition at 10 µM in [7] is 32.9%; in test [8], 70.1%.
Turning to `COc1cc(C(=O)/C=C/c2nccc3c4ccccc4n(C)c23)cc(OC)c1OC`, the inhibition at 10 µM in test [1] was 19%; in test [2] it was 40.1%; in test [3], 37.4%; in test [4] it was 59.5%; in test [5], 38.8%; in test [6], 33.8%. Further, the inhibition at 10 µM in test [7] came out at 28.8%; in test [8], 49.5%.
With `COc1cccc2c1C(=O)c1c(O)c3c(c(O)c1C2=O)C[C@@](O)(C(=O)CO)C[C@@H]3O[C@H]1C[C@H](N)[C@H](O)[C@H](C)O1` [DOXORUBICIN], the inhibition at 10 µM in test [1] amounted to 85.1%; in [2] it was 90.7%; in test [3] it was 69.2%; in [4], 73.9%; in test [5], 67.6%; in [6], 69%. Further, the inhibition at 10 µM is 56.9% in test [7] and 73.2% in test [8].
As for `O=C(/C=C/c1nccc2c1[nH]c1ccccc12)c1ccc(Br)cc1`, the inhibition at 10 µM in [1] is -4.72%; in test [2] it was 26.4%; in test [3], -2.43%; in [4], -0.24%; in test [5], 5.41%; in [6] it was 9.19%. In addition, the inhibition at 10 µM was found to be 7.15% in test [7] and 14.9% in test [8].
For `COc1ccc(C(=O)/C=C/c2nccc3c4ccccc4n(C)c23)cc1OC`, the inhibition at 10 µM in [1] worked out at 7.71%; in [2], 42.4%; in [3] it was 68.7%; in test [4] it was 34.1%; in [5], 15.5%; in [6], 19.6%. The results for the inhibition at 10 µM in test [7] and in test [8] were 12.9% and 45.3%, respectively.
Regarding `Cc1ccc(C(=O)/C=C/c2nccc3c4ccccc4n(C)c23)cc1`, the inhibition at 10 µM in [1] amounted to 13.7%; in [2], 32.2%; in test [3], 46.2%; in test [4] it was 45.7%; in test [5] it was 19.2%; in test [6] it was 13.2%. Also, the inhibition at 10 µM in test [7] was determined as 20.8%; in test [8], 35.8%.
As for `O=C(/C=C/c1nccc2c1[nH]c1ccccc12)c1ccc(Cl)cc1`, the inhibition at 10 µM in test [1] is -13.1%; in test [2], 80.5%; in [3], 0.2%; in test [4], 7.63%; in test [5] it was 75.8%; in test [6], 4.68%. Moreover, the results for the inhibition at 10 µM in test [7] and in test [8] were 15% and 41.2%, respectively.
In the case of `CCn1c2ccccc2c2ccnc(/C=C/C(=O)c3ccc(OC)cc3)c21`, the inhibition at 10 µM in test [1] is 9.18%; in test [2] it was 61.6%; in [3] it was 43.7%; in test [4] it was 52.5%; in test [5], 39.2%; in [6], 21.2%. In addition, the results for the inhibition at 10 µM in [7] and in test [8] were 27.2% and 55.5%, respectively.
Take `COc1ccc(C(=O)/C=C/c2nccc3c2[nH]c2ccccc23)cc1`: the inhibition at 10 µM in test [1] worked out at 33.7%; in test [2], 70.8%; in test [3] it was 33.9%; in test [4], 61.9%; in test [5], 77.2%; in test [6], 29.2%. The inhibition at 10 µM in [7] was 37.2%; in test [8], 74.2%.
As to `COc1ccc(C(=O)/C=C/c2nccc3c4ccccc4n(C)c23)cc1`, the inhibition at 10 µM is -0.03% in test [1]; 16.9% in test [2]; 37.4% in [3]; 9.1% in test [4]; 0.18% in test [5]; -3.88% in test [6]. Moreover, the inhibition at 10 µM was 8.18% in test [7] and 28.2% in test [8].
Take `O=C(/C=C/c1nccc2c1[nH]c1ccccc12)c1ccc(F)cc1`: the inhibition at 10 µM in test [1] is -4.04%; in test [2], 49.9%; in [3], 8.15%; in test [4], -5.2%; in test [5], 16.2%; in [6], 6.73%. The figures for the inhibition at 10 µM in test [7] and in test [8] were 9.92% and 25.6%, respectively.
Take `COc1cc(C(=O)/C=C/c2nccc3c2[nH]c2ccccc23)cc(OC)c1OC`: the inhibition at 10 µM came to 84.8% in test [1]; 73.9% in test [2]; 36.6% in test [3]; 76.1% in test [4]; 65% in test [5]; 73.4% in test [6]. The values for the inhibition at 10 µM in test [7] and in [8] were 86.8% and 80.6%, respectively. In addition, the IC50 in test [9] is over 10 µM; in test [10] (MCF7, 48 h) it was 3.29 µM; in test [11] it was 5.41 µM; in test [12] it was over 10 µM; in test [13], over 10 µM; in test [14] it was over 10 µM. Besides, the Activity entry in test [10], in test [15] and in test [16] was “Dose-dependent effect” each time.
In the case of `Cc1ccc(C(=O)/C=C/c2nccc3c2[nH]c2ccccc23)cc1`, the inhibition at 10 µM amounted to 2.1% in test [1]; 70.5% in test [2]; 5.1% in test [3]; 11.4% in [4]; 60.5% in test [5]; 9.91% in [6]. Moreover, the inhibition at 10 µM in test [7] was 20.9%; in [8], 42.4%.
In the case of `CCn1c2ccccc2c2ccnc(/C=C/C(=O)c3ccc(OC)c(OC)c3)c21`, the inhibition at 10 µM in test [1] is 15.3%; in test [2], 56.2%; in [3], 57.6%; in [4], 56.8%; in test [5] it was 70.1%; in test [6], 35.6%. The inhibition at 10 µM in test [7] came to 29.6%; in [8] it was 66%.
As for `CCn1c2ccccc2c2ccnc(/C=C/C(=O)c3ccccc3)c21`, the inhibition at 10 µM was determined as 25% in test [1]; 75.1% in [2]; 33.5% in test [3]; 54.2% in test [4]; 80.5% in [5]; 12.5% in test [6]. The inhibition at 10 µM stood at 39.3% in [7] and 77.6% in [8].
On to `Cn1c2ccccc2c2ccnc(/C=C/C(=O)c3ccccc3)c21`, for which the inhibition at 10 µM in test [1] was found to be 25.5%; in test [2], 64.9%; in [3] it was 28.6%; in [4], 53.2%; in test [5], 75.5%; in test [6], 19.3%. Further, the inhibition at 10 µM was 27.2% in test [7] and 67.5% in [8].
For `CCn1c2ccccc2c2ccnc(/C=C/C(=O)c3cc(OC)c(OC)c(OC)c3)c21`, the inhibition at 10 µM was 24.7% in [1]; 70.7% in test [2]; 68.5% in [3]; 60.1% in test [4]; 81.1% in test [5]; 44.4% in test [6]. Besides, the inhibition at 10 µM was 32.7% in [7] and 73.4% in test [8].
As for `CCn1c2ccccc2c2ccnc(/C=C/C(=O)c3ccc(C)cc3)c21`, the inhibition at 10 µM in test [1] stood at 11.9%; in test [2], 34.1%; in test [3], 47.7%; in test [4] it was 35%; in test [5], 26.6%; in test [6], 16.4%. The results for the inhibition at 10 µM in test [7] and in test [8] were 30% and 44.1%, respectively.

For the origin of these results see ChEMBL document CHEMBL3286126, “Synthesis of novel β-carboline based chalcones with high cytotoxic activity against breast cancer cells” (Bioorg Med Chem Lett, 2014).
